Results: PubChem BioAssay (NCI)
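Cells were grown in 96-well plates and exposed to each compound for 48 hours at five concentrations; endpoints were interpolated linearly between bracketing concentrations, or set to the highest concentration if not reached. TGI marks complete inhibition of growth.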 Starred links: 1 amine or outer side, 2 acyl side, 3 side chain; linkers in the order of their positions; H or OH if unused. Positions of bridges follow the written chain, without caps; N, C: chain ends. Non-standard residues stand in square brackets, D forms with d. Residues, ends and D or L forms follow the SMILES beside them. Chains are numbered I, II in the order given. Actinocin(1to9) = Cc1c2oc3c(C)ccc(C(=O)[*:2])c3nc-2c(C(=O)[*:1])c(N)c1=O; NMeV = CN[CH](C(=O)O)C(C)C; Sar = CNCC(=O)O

Tests used:
Assay in all cases: NCI anticancer screen, dose series, 48 h
HCT-116 colon = test system: HCT-116 colon
HOP-62 NSCLC = test system: HOP-62 NSCLC
IGROV1 ovarian = test system: IGROV1 ovarian
MDA-N = test system: MDA-N
NCI-H23 lung = test system: NCI-H23 lung
RPMI-8226 leukemia = test system: RPMI-8226 leukemia
SK-MEL-5 melanoma = test system: SK-MEL-5 melanoma
SK-OV-3 ovarian = test system: SK-OV-3 ovarian
TK-10 renal = test system: TK-10 renal
T-47D breast = test system: T-47D breast
A498 renal = test system: A498 renal

Structure (SMILES)	TGI (HCT-116 colon) [µM]	TGI (HOP-62 NSCLC) [µM]	TGI (IGROV1 ovarian) [µM]	TGI (MDA-N) [µM]	TGI (NCI-H23 lung) [µM]	TGI (RPMI-8226 leukemia) [µM]	TGI (SK-MEL-5 melanoma) [µM]	TGI (SK-OV-3 ovarian) [µM]	TGI (TK-10 renal) [µM]	TGI (T-47D breast) [µM]	TGI (A498 renal) [µM]
CC(Nc1ncc2c(n1)-c1ccccc1OC2)C(=O)O (stereo unspecified)	> 100	> 100	> 100	> 100	> 100	> 100	> 100	> 100	> 100		
CC(ON(C(c1ccccc1)C(C)C)C(C)(C)C)c1ccccc1 (stereo unspecified)	33.9	38.9	59.2	81.3	63.9	73.7	29.7	> 100	46.2	81	
CCCNC(=S)/N=C/c1c(O)cc(C)oc1=O	> 100	> 100	> 100	> 100	> 100		> 100	> 100	> 100	> 100	
CC(C)(O)/C=C\P(=O)(O)O	> 100	> 100	> 100	> 100	> 100		> 100	> 100	> 100	> 100	
Oc1ccc(O)c(CNc2ccc(C(O)C(F)(F)F)cc2)c1 (stereo unspecified)	32.2	43	30.1	25.9	56.9		76.2	> 100	33.1	61.5	> 100
C=CCn1c(-c2ccc([N+](=O)[O-])cc2)cs/c1=N\C(P(=O)(O)O)P(=O)(O)O	> 100	> 100	> 100	> 100	> 100	> 100	> 100	> 100	> 100		> 100
CCC(C)C1NC(=O)C(NC(=O)c2c3nc4c(C(=O)NC5C(=O)NC(C(C)CC)C(=O)N6CCCC6C(=O)N(C)CC(=O)N(C)C(C(C)C)C(=O)OC5C)ccc(C)c4oc-3c(C)c(=O)c2N)C(C)OC(=O)C(C(C)C)N(C)C(=O)CN(C)C(=O)C2CCCN2C1=O (stereo unspecified) (I: TIP[Sar][NMeV] / II: TIP[Sar][NMeV]; ester I:1-I:C, II:1-II:C; linker I:N-II:N via Actinocin(1to9); configuration not given here)					0.0168	0.0322	0.018	0.578	0.0755	0.0122	0.0629
O=C(CC(=O)N1N=C(N2CCCCC2)CC1c1ccccc1)Nc1ccccc1 (stereo unspecified)	> 100	> 100	> 100	> 100	> 100		> 100		> 100	> 100	> 100
O=c1[nH]c(=O)n(COCc2ccccc2)c2ccsc12	> 100	> 100	> 100	> 100		> 100	> 100		> 100	> 100	> 100
COc1cc(NS(C)(=O)=O)ccc1Nc1cc[nH]c2ccc3nccc3c12	24.7	30.6	31.2	30.8	29.8	31.7	29.8		30.3	33.2	30.7
CC(C)=CCC[C@]1(C)C=Cc2c(O)c3c(c(CC=C(C)C)c2O1)O[C@]12C(=C[C@@H]4CC1C(C)(C)O[C@@]2(C/C=C(/C)C(=O)O)C4=O)C3=O	1.5	3.11	2.81	4.59	3.24	1.61		8.54	2.47		3.98
C[C@@H](c1ccccc1)n1c(N)c(-c2ccccn2)c2ccc([N+](=O)[O-])cc2c1=O	> 100			> 100	> 100		> 100		> 100	> 100	65.5
O=C1NC(N2CCOCC2)=N/C1=C\c1ccc(Cl)cc1	> 100	> 100	> 100	> 100	> 100	> 100		> 100	> 100	> 100	
O=c1oc2ccccc2nc1/C=C(\O)c1ccc(Cl)cc1	> 100	> 100	> 100	> 100	> 100		> 100	> 100	> 100	> 100	> 100
COc1ccc(N=NC(=O)NC(Cc2ccccc2)C(=O)O)cc1 (stereo unspecified)	> 100	> 100	> 100	> 100	> 100	> 100	> 100		> 100	> 100	> 100
c1ccc(-c2nnn3c2NC2=C(CCCC2)C3c2ccccc2)cc1 (stereo unspecified)	24.3	39.2	40.2	32.3	69.4	31.9	30.1	50.7		49.9	
CN(C)CCCc1cccc2[nH]c3c(c12)CN(C)CC3	> 100	> 100	> 100	> 100	> 100	> 100	> 100	> 100	> 100	> 100	
CCOC(=O)c1c(N)n(-c2ccccc2)c(=O)n(-c2ccccc2)c1=O			> 100		> 100	> 100	> 100		> 100	> 100	
Cc1cn([C@@H]2C[C@@H]2CO)c(=O)[nH]c1=O	> 100	> 100	> 100	> 100	> 100	> 100	> 100		> 100	> 100	> 100
CCc1ccccc1N=NC(=O)NNc1ccccc1CC	29	29.4	26	33.2	39.8	77.3	28.6		50.1	32.2	36.5
NC(Cc1ccc(OCc2ccccc2)cn1)C(=O)O (stereo unspecified)	> 100	> 100	> 100	> 100	> 100	> 100	> 100		> 100		> 100
